Assay results from PubChem BioAssay AID1949 (Southern Research Institute, 2009).
≈ marks a conversion by molar mass, not a printed value. Results filed as inconclusive are left out. Calls of active or inactive are those of the source. How the calls were made is not given here.

Test system: M. tuberculosis H37Rv growth inhibition
Experiment: Confirmatory growth inhibition assay against Mycobacterium tuberculosis H37Rv, potency (AID 1949);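 further: bacteria grown 7 days with compound before Alamar blue readout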

| Structure (SMILES) | IC50 |
| --- | --- |
| COc1ccc(Cc2nnc(SCC(=O)NCCc3ccccc3)o2)cc1 | < 0.1 µg/mL |
| CN1CCN(c2ccc(NC(=S)NC(=O)c3cc4ccccc4o3)cc2)CC1 | 10.7 µg/mL (≈ 27.2 µM) |
| O=C(Oc1ccc(F)cc1)c1ccc(Oc2ccc([N+](=O)[O-])cc2)cc1 | 1.12 µg/mL (≈ 3.17 µM) |
| O=C(C#Cc1ccccc1)c1ccc([N+](=O)[O-])cc1 | > 50 µg/mL (inactive) |
| O=C(Oc1ccc(Cl)c2cccnc12)c1cccc(Br)c1 | 10.6 µg/mL (≈ 29.3 µM) |
| O=S(=O)(CCSc1nc2ccccc2o1)c1nc2ccccc2s1 | 11.1 µg/mL (≈ 29.5 µM) |
| COC(=O)c1ccc(N2C(=O)CC(N(CCc3ccccc3)C(=S)Nc3ccccc3)C2=O)cc1 (stereo unspecified) | 2.77 µg/mL (≈ 5.68 µM) |
| CC(=O)C1=C(C)NC(SCC(=O)Nc2nc3ccccc3s2)=C(C#N)C1c1ccc(Cl)cc1 (stereo unspecified) | 4.1 µg/mL (≈ 8.28 µM) |
| O=[N+]([O-])c1ccc(-c2[nH]c(-c3cccs3)nc2-c2ccccc2)cc1 | 2.86 µg/mL (≈ 8.23 µM) |
| Cc1ccc(-c2noc(CNc3cccc(Cl)c3)n2)cc1 | 13.9 µg/mL (≈ 46.4 µM) |
| CC(=O)c1c(O)n(C)c(=S)n(C)c1=O | > 50 µg/mL (inactive) |
| Cc1cc(NC(=O)CSc2nnnn2-c2ccccc2C)no1 | 1.41 µg/mL (≈ 4.27 µM) |
| Nc1cc(N)c2cc(-c3ccccc3)oc2c1 | > 50 µg/mL (inactive) |
| COc1ccc(-c2nnc(SCC(=O)NCCc3ccccc3)o2)cc1 | < 0.1 µg/mL |
| CCc1ccc(OCC(=O)Nc2ccc(N3CCN(C(=O)c4cccs4)CC3)c(Cl)c2)cc1 | 2.95 µg/mL (≈ 6.09 µM) |
| CC1CCc2nc3sc4c(c3c(N)c2C1)CCCC4 (stereo unspecified) | 1.06 µg/mL (≈ 3.89 µM) |
| COc1cc(/C=C/[N+](=O)[O-])ccc1OC(=O)c1ccco1 | 22.6 µg/mL (≈ 78.1 µM) |
| c1ccc(CNCc2cn(-c3ccccc3)nc2-c2ccncc2)cc1 | 16.5 µg/mL (≈ 48.5 µM) |
| CCCc1cc2c(-c3ccccc3)cc(=O)oc2cc1OCC | > 50 µg/mL (inactive) |
| COc1ccc(-c2oc3ncn(CCCn4ccnc4)c(=N)c3c2-c2ccc(OC)cc2)cc1 | 3.79 µg/mL (≈ 8.32 µM) |
| O=C(NCc1ccc(Cl)c(Cl)c1)C(Cl)Cl | 10.6 µg/mL (≈ 37.1 µM) |
| O=C(CCNc1cccc(Cl)c1)c1ccco1 | 3.68 µg/mL (≈ 14.7 µM) |
| COc1ccc(-c2cc(C(=O)Nc3ccc(C(=O)N4CCOCC4)cc3)c3cc(C)ccc3n2)cc1 | > 50 µg/mL (inactive) |
| O=C(Nc1nc2c(Cl)c(Cl)ccc2s1)c1ccco1 | 4.83 µg/mL (≈ 15.4 µM) |
| Cn1c2c(c(=O)n(C)c1=O)C(C(F)(F)F)(C(F)(F)F)N=C(c1cccc([N+](=O)[O-])c1)N2 | > 50 µg/mL (inactive) |
| O=C(Nc1ccc(F)c(Cl)c1)c1ccc([N+](=O)[O-])o1 | < 0.1 µg/mL |
